Drawing on ChEMBL document CHEMBL1140816, “Syntheses of tetrahydrothiophenes and tetrahydrofurans and studies of their derivatives as melanocortin-4 receptor ligands” (Bioorg Med Chem Lett, 2008), this text covers Ki, IC50 and EC50 for 39 compounds.

As usually defined, the Ki is the dissociation constant of the complex between target and ligand, obtained from inhibition or displacement. High values mean lower affinity, low ones higher affinity. One may read the IC50 as the concentration at which inhibition is half-maximal. As a reminder, the EC50 is the concentration giving half of the maximal effect.

For the first experiment, the target named is T1, Melanocortin receptor 4 (Homo sapiens, UniProt P32245). Description: Displacement of [125I]NDP-MSH from human MC4R expressed in HEK293 cells. The format is cell-based. A general note: Displacement assays read how much labelled ligand stays bound in the presence of the test substance.
T1 sequence (P32245 whole entry): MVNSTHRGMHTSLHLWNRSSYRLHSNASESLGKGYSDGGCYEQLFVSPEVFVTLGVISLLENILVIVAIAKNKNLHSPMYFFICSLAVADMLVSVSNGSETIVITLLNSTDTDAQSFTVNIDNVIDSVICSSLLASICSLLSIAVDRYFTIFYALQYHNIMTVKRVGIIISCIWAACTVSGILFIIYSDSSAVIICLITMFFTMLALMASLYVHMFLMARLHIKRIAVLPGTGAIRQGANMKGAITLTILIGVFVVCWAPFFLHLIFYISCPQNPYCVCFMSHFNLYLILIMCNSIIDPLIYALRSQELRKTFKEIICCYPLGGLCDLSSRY
In turn, `Cc1ccc(N2CCN(C(=O)[C@@H]3CCO[C@@H]3c3ccc(Cl)cc3)CC2)c([C@@H](N)C(C)C)c1` displayed a Ki of 590 nM. Compound `CC(C)C[C@H](NC(=O)CCN(C)C)c1cc(C(F)(F)F)ccc1N1CCN(C(=O)[C@H]2CSC[C@@H]2c2ccc(Cl)cc2)CC1` showed a Ki of 130 nM. Compound `CC(C)C[C@H](NC(=O)[C@@H](C)N)c1cc(C(F)(F)F)ccc1N1CCN(C(=O)[C@H]2CSC[C@@H]2c2ccc(Cl)cc2)CC1` came in with a Ki of 130 nM. That is a sub-micromolar value. Regarding `CNCC(=O)N[C@@H](CC(C)C)c1cc(C(F)(F)F)ccc1N1CCN(C(=O)[C@H]2CSC[C@@H]2c2ccc(Cl)cc2)CC1`, the Ki was 250 nM. Consider `CC(C)C[C@H](NC(=O)CCN(C)C)c1cc(C(F)(F)F)ccc1N1CCN(C(=O)[C@H]2CS(=O)(=O)C[C@@H]2c2ccc(Cl)cc2)CC1`, for which the inhibition constant Ki came to 170 nM. With `CNCCC(=O)N[C@@H](CC(C)C)c1cc(C(F)(F)F)ccc1N1CCN(C(=O)[C@H]2CS(=O)(=O)C[C@@H]2c2ccc(Cl)cc2)CC1`, the Ki came to 190 nM. Still for that read-out and setting: the same measure for `CC(C)C[C@H](N)c1cc(C(F)(F)F)ccc1N1CCN(C(=O)[C@H]2CS(=O)(=O)C[C@@H]2c2ccc(Cl)cc2)CC1`: 38 nM. `Cc1ccc(N2CCN(C(=O)[C@@H]3CCO[C@@H]3c3ccc(Cl)cc3)CC2)c([C@@H](NC(=O)CCN(C)C)C(C)C)c1` returned a Ki of 120 nM. With `CC(C)[C@H](N)c1cccc(F)c1N1CCN(C(=O)[C@@H]2CCO[C@@H]2c2ccc(Cl)cc2)CC1`, the Ki came out at 2100 nM. This Ki is about 18-fold higher than that of the compound before. The compound `CC(C)[C@H](NC(=O)CCN(C)C)c1cccc(F)c1N1CCN(C(=O)[C@@H]2CCO[C@@H]2c2ccc(Cl)cc2)CC1` displayed a Ki of 480 nM. Take `CC(C)C[C@H](N)c1cc(C(F)(F)F)ccc1N1CCN(C(=O)C2COCC2c2ccc(Cl)cc2)CC1` (some centres not stated): the affinity, expressed as Ki, was 280 nM. For `Cc1ccc(N2CCN(C(=O)[C@@H]3OCC[C@@H]3c3ccc(Cl)cc3)CC2)c([C@@H](NC(=O)CCN(C)C)C(C)C)c1`, the Ki came out at 10 nM. Still for that read-out and setting: the same measure for `CC(C)C[C@H](NC(=O)CCN(C)C)c1cc(C(F)(F)F)ccc1N1CCN(C(=O)[C@H]2CCO[C@@H]2c2ccc(Cl)cc2)CC1`: 200 nM. Compound `CC(C)C[C@H](NC(=O)CCN(C)C)c1cc(Cl)ccc1N1CCN(C(=O)[C@H]2CCO[C@@H]2c2ccc(Cl)cc2)CC1` yielded a Ki of 74 nM. Compound `CC(C)[C@H](NC(=O)CCN(C)C)c1cccc(F)c1N1CCN(C(=O)[C@H]2CS(=O)(=O)C[C@@H]2c2ccc(Cl)cc2)CC1` showed a Ki of 380 nM. Compound `CC(C)[C@H](NC(=O)CCN(C)C)c1cccc(F)c1N1CCN(C(=O)[C@@H]2CS(=O)(=O)C[C@H]2c2ccc(Cl)cc2)CC1` registered a Ki of 37 nM. Against the preceding compound, the Ki is about 10-fold lower. The same measure, in the same setting: the figure for `CNCC(=O)N[C@@H](CC(C)C)c1cc(C(F)(F)F)ccc1N1CCN(C(=O)[C@H]2CS(=O)(=O)C[C@@H]2c2ccc(Cl)cc2)CC1` is 180 nM; for `CC(C)C[C@H](NC(=O)CCN(C)C)c1cc(Cl)ccc1N1CCN(C(=O)[C@@H]2CCO[C@@H]2c2ccc(Cl)cc2)CC1` it is 87 nM; for `CC(C)[C@H](NC(=O)CCN(C)C)c1cccc(F)c1N1CCN(C(=O)C2COCC2c2ccc(Cl)cc2)CC1` (some centres not stated) it is 40 nM. In turn, `CC(C)[C@H](NC(=O)CCN(C)C)c1cccc(F)c1N1CCN(C(=O)[C@@H]2COC[C@@H]2c2ccc(Cl)cc2)CC1` registered a Ki of 28 nM. The Ki values of the last two compounds are within 1.5-fold of each other. `CC(C)[C@H](N)c1cccc(F)c1N1CCN(C(=O)C2COCC2c2ccc(Cl)cc2)CC1` (some centres not stated) yielded a Ki of 790 nM.

`CC(C)C[C@H](N)c1cc(C(F)(F)F)ccc1N1CCN(C(=O)C2C(=O)OCC2c2ccc(Cl)cc2)CC1` (some centres not stated) returned a Ki of 260 nM. Regarding `CC(C)[C@H](NC(=O)CCN(C)C)c1cccc(F)c1N1CCN(C(=O)[C@H]2COC[C@@H]2c2ccc(Cl)cc2)CC1`, the Ki is 30 nM. `CC(C)C[C@H](NC(=O)[C@@H](C)N)c1cc(C(F)(F)F)ccc1N1CCN(C(=O)[C@H]2CS(=O)(=O)C[C@@H]2c2ccc(Cl)cc2)CC1` returned a Ki of 100 nM. Against the preceding compound, the Ki is about 3.3-fold higher.

As for `Cc1ccc(N2CCN(C(=O)[C@H]3CCO[C@@H]3c3ccc(Cl)cc3)CC2)c([C@@H](N)C(C)C)c1`, the affinity corresponds to a Ki of 410 nM. `CC(C)C[C@H](NC(=O)CCN)c1cc(C(F)(F)F)ccc1N1CCN(C(=O)C2CC(=O)OC2c2ccc(Cl)cc2)CC1` (some centres not stated) had a Ki of 110 nM.

Compound `CC(C)C[C@H](NC(=O)CCN(C)C)c1cc(C(F)(F)F)ccc1N1CCN(C(=O)[C@H]2C[S+]([O-])C[C@@H]2c2ccc(Cl)cc2)CC1` (some centres not stated) came in with a Ki of 230 nM. `CNCCC(=O)N[C@@H](CC(C)C)c1cc(C(F)(F)F)ccc1N1CCN(C(=O)[C@H]2CSC[C@@H]2c2ccc(Cl)cc2)CC1` displayed a Ki of 170 nM. `CC(C)C[C@H](N)c1cc(Cl)ccc1N1CCN(C(=O)[C@H]2CCO[C@@H]2c2ccc(Cl)cc2)CC1` registered a Ki of 280 nM. Consider `CC(C)C[C@H](NC(=O)CCN(C)C)c1cc(C(F)(F)F)ccc1N1CCN(C(=O)C2COCC2c2ccc(Cl)cc2)CC1` (some centres not stated), for which the Ki came to 71 nM. Regarding `CC(C)C[C@H](NC(=O)CCN)c1cc(C(F)(F)F)ccc1N1CCN(C(=O)C2C(=O)OCC2c2ccc(Cl)cc2)CC1` (some centres not stated), the Ki turned out to be 180 nM. This Ki lies about 2.5-fold higher than the previous one.

For `CC(C)C[C@H](N)c1cc(C(F)(F)F)ccc1N1CCN(C(=O)[C@H]2CCO[C@@H]2c2ccc(Cl)cc2)CC1`, the affinity corresponds to a Ki of 330 nM. `CC(C)C[C@H](NC(=O)CCN(C)C)c1cc(C(F)(F)F)ccc1N1CCN(C(=O)C2C(=O)OCC2c2ccc(Cl)cc2)CC1` (some centres not stated) registered a Ki of 290 nM. For `CC(C)C[C@H](N)c1cc(C(F)(F)F)ccc1N1CCN(C(=O)[C@H]2CSC[C@@H]2c2ccc(Cl)cc2)CC1`, the affinity corresponds to a Ki of 280 nM. Regarding `CC(C)[C@H](N)c1cccc(F)c1N1CCN(C(=O)[C@H]2CCO[C@@H]2c2ccc(Cl)cc2)CC1`, the affinity, expressed as Ki, was 1100 nM. `Cc1ccc(N2CCN(C(=O)[C@H]3OCC[C@@H]3c3ccc(Cl)cc3)CC2)c([C@@H](NC(=O)CCN(C)C)C(C)C)c1` showed a Ki of 43 nM. This Ki is about 26-fold lower than that of the compound before. Consider `CC(C)C[C@H](N)c1cc(C(F)(F)F)ccc1N1CCN(C(=O)[C@H]2C[S+]([O-])C[C@@H]2c2ccc(Cl)cc2)CC1` (some centres not stated), for which the affinity corresponds to a Ki of 120 nM.

For a further experiment, the target named is T1, Melanocortin receptor 4. Put plainly: Antagonist activity at human MC4R assessed as inhibition of alpha MSH-stimulated cAMP release by cell based assay. The format is functional.
Consider `CC(C)C[C@H](N)c1cc(C(F)(F)F)ccc1N1CCN(C(=O)[C@H]2CS(=O)(=O)C[C@@H]2c2ccc(Cl)cc2)CC1`, for which the IC50 worked out at 690 nM. As to `Cc1ccc(N2CCN(C(=O)[C@@H]3OCC[C@@H]3c3ccc(Cl)cc3)CC2)c([C@@H](NC(=O)CCN(C)C)C(C)C)c1`, the IC50 was 530 nM.

Another experiment has as its target T1, Melanocortin receptor 4. Put plainly: Agonist activity at MC4R. The format is functional.
Turning to `CC(C)(C)N1C[C@H](C(=O)N2CCC(CN3CCOC3=O)(C3CCCCC3)CC2)[C@@H](c2ccc(F)cc2F)C1`, the EC50 was determined as 2 nM. This counts as single-digit nanomolar.

In a further experiment the target is T1, Melanocortin receptor 4. Put plainly: Binding affinity at MC4R.
`CC(C)(C)N1C[C@H](C(=O)N2CCC(CN3CCOC3=O)(C3CCCCC3)CC2)[C@@H](c2ccc(F)cc2F)C1` showed an IC50 of 14 nM.

The target in another experiment is T1, Melanocortin receptor 4. Put plainly: Binding affinity at human MC4R.
With `CC(C)C[C@H](N)c1cc(C(F)(F)F)ccc1N1CCN(C(=O)C(C)(C)Cc2ccc(Cl)cc2)CC1`, the Ki amounted to 810 nM.
